Measurements reported in US12241087B2, “Compositions and methods for differentiating stem cells into NK cells” (CRISPR THERAPEUTICS AG, priority 2020, dated 2025).

Assays:
iPSC [1] = assay: Effect of CHIR-99021 concentration in NK-MED-005c medium on iNK induction; type: cell-based, human; details: 2.5, 3.5 or 4.5 μM, differentiation day 20, AP2.0
Experimental: To determine the optimal concentration of CHIR-99021, different concentrations (2.5 μM, 3.5 μM or 4.5 μM) were added to the NK-MED-005c medium (Table 30) to test their effect on iNK induction. Differentiation proceeded according to Protocol 2 (AP2.0) as described in Example 11. Cells were collected and analyzed using flow cytometry to detect CD45^+CD56^+ cells at differentiation day 20.

iPSC [2] = assay: CD45/CD56 expression on day 28 after early modulation of WNT signaling; type: cell-based, human
Experimental: For iPSC-HSPC differentiation optimization, CD45/CD56 expression on day 28 was measured (FIG. 10). The HSPC cells on day 6 were further differentiated to iNK in the StemPro-34—based differentiation media Table 12) in the presence of IL7, IL15, SCF. Flt3L, (IL3 was added for days 6-14 only). […] However, it was not an optimal condition as the single cells production and expansion was lower than in conditions in the presence of Activin A molecule (data not shown). Due to low CD56^+ cells formation on day 28, the HSPC to iNK differentiation conditions was optimized.

HSPC [3] = assay: Effect of β-mercaptoethanol on differentiation, CD45 and CD56 expression; type: cell-based; details: 50 μM in DMEM/F12 media with low zinc, low human serum
Experimental: To determine the effects of β-mercaptoethanol on differentiation, CD45+ and CD56+ expression was measured in cells cultured in Stempro34 media, DMEM/F12 media with low zinc, low human serum, and no β-mercaptoethanol (bME), or DMEM/F12 media with low zinc, low human serum, and 50 μM β-mercaptoethanol.

HSPC [4] = assay: Design of Experiment (DoE) I, day 6 to day 20; type: cell-based, human; details: differentiation and number of cells at day 20
Experimental: This Example reports the identification of optimized concentrations for certain components in the base media. A design of Experiment (DoE) study was performed to determine the concentrations of zinc sulfate, β-mercaptoethanol, human serum, and glucose that would provide the most differentiation and increased number of cells at differentiation day 20. These factors were selected based on known chemical/biological effects of them in affect general cell proliferation and differentiation. Potential positive/negative involvement of β-mercaptoethanol, zinc ion, human serum, and glucose in NIK cell or lymphocyte cell proliferation, killer cell receptor function, and cytotoxicity have been previously reported. There were no known studies conducted on testing optimal range of these factors in NK cell induction from HSPC.

HSPC [5] = assay: Stage II basal media testing (HSPC to iNK), day 21 single cells; type: cell-based, human; details: in StemPro-based media
Experimental: This Example investigates the use of various alternative base media that can be used for Stage II differentiation. […] The HSPC to iNK differentiation from day 6 further on was done in StemPro-34—based media (Table 12). […] In this Example, the […] until day 6 as described in Example 2 (i.e., steps 1-5). Each media was supplemented with 20 ng/mL IL7, 20 ng/mL IL15, 20 ng/mL SCF, 20 ng/mL Flt3L and 5 ng/mL of IL-3 for days 6-14 and 20 ng/mL IL7, 20 ng/mL IL15, 20 ng/mL SCF, 20 ng/mL Flt3L for days 14-21 of differentiation.
Day 21 single cells were profiled for CD45^+/CD56^+, CD56^+/NKG2D^+, CD56^+/CD94^+, and CD56^+/CD16^+ expression (FIG. 12). […] The DMEM/F12 2:1 basal media was chosen due to its price and higher availability for scale up production.

iPSC [6] = assay: Effect of WNT-C59 in NK-MED-006 medium on iNK induction; type: cell-based, human; details: 2 μM, day 20 cultures, AP2.0
Experimental: The effect of including WNT-C59 (2 μM) in NK-MED-006 medium during iNK induction using the AP2.0 protocol was examined. […] The addition of WNT-C59 increased proportion of cells expressing non-NK lineage markers.

SMILES: Cc1cnc(-c2cnc(NCCNc3ccc(C#N)cn3)nc2-c2ccc(Cl)cc2Cl)[nH]1 [CHIR-99021, 6-[[2-[[4-(2,4-Dichlorophenyl)-5-(5-methyl-1H-imidazol-2-yl)-2-pyrimidinyl]amino]ethyl]amino]-3-pyridinecarbonitrile]
- proportion of CD45+CD56+ cells (iPSC [1]): highest proportion of CD45^+CD56^+ cells were collected using a moderate amount
- CD56+ percentage (iPSC [2]; day 28, condition #5, StemPro-34 based media): highest
- single cells production and expansion (iPSC [2]; versus conditions with Activin A, data not shown): lower

SMILES: OCCS [β-mercaptoethanol]
- effect on iNK cell induction (HSPC [3]): negative effect
- direction of effect in DoE I (HSPC [4]): negative effect
- iNK differentiation (HSPC [5]): prevented iNK differentiation

SMILES: O=S(=O)([O-])[O-].[Zn+2] [Zinc sulfate]
- direction of effect in DoE I (HSPC [4]): positive effect

SMILES: Cc1cc(-c2ccc(CC(=O)Nc3ccc(-c4cccnc4)cc3)cc2)ccn1 [WNT-C59]
- proportion of cells expressing non-NK lineage markers (iPSC [6]): increased
- proportion of iNK that expressed the myeloid progenitor marker CD33 (iPSC [6]): altered
